This note sets out measurements from US9353104B2, “Substituted pyridizinone derivatives as PDE10 inhibitors” (priority 2013, dated 2016).

In the assay the target is human PDE10A2 (Homo sapiens (Human), UniProt Q9Y233). Description: PDE10 fluorescence polarization (IMAP FP) inhibition assay. The format is biochemical. Particulars: human PDE10A2 lysate, FAM-labeled cAMP 50 nM, room temperature; read-out: PDE10A Ki. Put shortly: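 Cytoplasmic lysate of AD293 cells transiently expressing human PDE10A2, diluted for ~20% conversion of 50 nM FAM-cAMP, in 10 mM Tris pH 7.2, 10 mM MgCl2, 1 mM DTT, 0.01% Tween-20. Reaction 30 min at room temperature, read by IMAP fluorescence polarization; 10-point 3-fold titrations, 1% DMSO as 0%, reference PDE10 inhibitor at 5,000× Ki as 100%.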
Chain of human PDE10A2 (Q9Y233 267-1055): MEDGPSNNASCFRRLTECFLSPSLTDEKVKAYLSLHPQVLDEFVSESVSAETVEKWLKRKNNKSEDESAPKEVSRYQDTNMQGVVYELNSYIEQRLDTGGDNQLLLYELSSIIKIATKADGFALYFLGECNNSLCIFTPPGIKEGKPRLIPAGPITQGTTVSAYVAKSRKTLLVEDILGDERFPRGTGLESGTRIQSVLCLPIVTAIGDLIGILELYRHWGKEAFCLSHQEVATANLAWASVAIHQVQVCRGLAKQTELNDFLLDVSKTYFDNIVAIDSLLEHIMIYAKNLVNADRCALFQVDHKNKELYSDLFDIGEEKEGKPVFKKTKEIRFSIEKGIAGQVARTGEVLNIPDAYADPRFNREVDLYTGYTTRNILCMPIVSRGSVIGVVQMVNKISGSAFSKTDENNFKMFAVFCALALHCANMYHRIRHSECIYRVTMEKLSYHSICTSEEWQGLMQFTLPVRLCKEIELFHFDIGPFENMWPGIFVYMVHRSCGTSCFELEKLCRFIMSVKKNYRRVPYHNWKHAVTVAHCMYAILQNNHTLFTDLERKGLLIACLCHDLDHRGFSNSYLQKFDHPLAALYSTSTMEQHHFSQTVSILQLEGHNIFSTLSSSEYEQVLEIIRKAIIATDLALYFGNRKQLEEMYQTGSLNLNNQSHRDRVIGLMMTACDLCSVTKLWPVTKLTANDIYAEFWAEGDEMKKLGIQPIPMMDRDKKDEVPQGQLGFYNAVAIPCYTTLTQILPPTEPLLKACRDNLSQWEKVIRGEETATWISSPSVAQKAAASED
On to `Cc1cccc([C@H]2C[C@@H]2COc2cc(NCc3ccccn3)c(=O)n(C)n2)n1` [Example 119, 2-methyl-6-(((1S,2S)-2-(6-methylpyridin-2-yl)cyclo-propyl)methoxy)-4-(pyridin-2-ylmethylamino-)pyridazin-3(2H)-one], for which the inhibition constant (Ki) came to 3.4 nM. The result for `Cc1cccc([C@H]2C[C@@H]2COc2cc(NCc3cccnc3)c(=O)n(C)n2)n1` [Example 120, 2-methyl-6-(((1S,2S)-2-(6-methylpyridin-2-yl)cyclo-propyl)methoxy)-4-(pyridin-3-ylmethylamino-)pyridazin-3(2H)-one] reads 1.3 nM; that for `Cc1cc(CNc2cc(OC[C@H]3C[C@@H]3c3ccc4c(n3)CCC4)nn(C)c2=O)n(C)n1` [Example 121, 6-(((1S,2S)-2-(6,7-dihydro-5H-cyclopenta-[b]pyridin-2-yl)cyclop-ropyl)methoxy)-4-((1,3-dimethyl-1H-pyrazol-5-yl)methylamino)-2-methylpyridazin-3(2H)one], 0.001 nM. As to `Cc1cnc(CNc2cc(OC[C@H]3C[C@@H]3c3ccc4c(n3)CCC4)nn(C)c2=O)s1` [Example 124, 6-(((1S,2S)-2-(6,7-dihydro-5H-cyclopenta-[b]pyridin-2-yl)cyclopropyl)methoxy)-2-methy-4-((5-methylthiazol-2-yl)-methylamino-)pyridazin-3(2H)-one], the Ki was 0.002 nM. The figure for `Cn1cc(CNc2cc(OC[C@H]3C[C@@H]3c3ccc4c(n3)CCC4)nn(C)c2=O)cn1` [Example 125, 6-(((1S,2S)-2-(6,7-dihydro-5H-cyclopenta[b]pyridin-2-1)cyclopropyl)methoxy)-2-methyl-4-((1-methyl-1H-pyrazol-4-yl)methylamino-)pyridazin-3(2H)-one] is 0.005 nM; for `COc1ccc([C@H]2C[C@@H]2COc2cc(NCc3nc(C)c(C)s3)c(=O)n(C)n2)nc1` [Example 126, 4-((4,5-dimethylthiazol-2-yl)methylamino)-6-(((1S,2S)-2-(5-methoxy-pyridin-2-yl)cyclopropyl-)methoxy)-2-methyl-pyridazin-3(2H)-one] it is 0.048 nM. The figure for `Cc1ccc([C@H]2C[C@@H]2COc2cc(NCc3nc(C)c(C)s3)c(=O)n(C)n2)nc1` [Example 127, 4-((4,5-dimethylthiazol-2-yl)methylamino)-2-methyl-6-(((1S,2S)-2-(5-methyl-pyridin-2-yl)cyclopropyl- )methoxy)pyridazin-3(2H)-one] is 0.045 nM; for `Cc1nc(CNc2cc(OC[C@H]3C[C@@H]3c3ccn(C)n3)nn(C)c2=O)sc1C` [Example 128, 4-((4,5-dimethylthiazol-2-yl)methylamino)-2-methyl-6-(((1S,2S)-2-(1-methyl-1H-pyrazol-3-yl)cyclo-propyl)methoxy)pyridazin-3(2H)-one] it is 0.368 nM. `Cc1cc(CNc2cc(OC[C@H]3C[C@@H]3c3ccn(C)n3)nn(C)c2=O)nn1C` [Example 129, 4-((1,5-dimethyl-1H-pyrazol-3-yl)methylamino)-2-methyl-6-(((1S,2S)-2-(1-methyl-1H-pyrazol-3-yl)cyclopropyl)methoxy) pyridazin-3(2H)-one]: the Ki is 3.6 nM.

Take `COc1ccc([C@H]2C[C@@H]2COc2cc(NCc3ncc(C)s3)c(=O)n(C)n2)nc1` [Example 130, 6-(((1S,2S)-2-(5-methoxy-pyridin-2-yl)cyclopropyl-)methoxy)-2-methyl-4-((5-methyl-thiazol-2-yl)-methylamino-)pyridazin-3(2H)-one]: the Ki was found to be 0.004 nM. The result for `COc1ccc([C@H]2C[C@@H]2COc2cc(NCc3cnn(C)c3)c(=O)n(C)n2)nc1` [Example 131, 6-(((1S,2S)-2-(5-methoxy-pyridin-2-yl)cyclopropyl-)methoxy)-2-methyl-4-((1-methyl-1H-pyrazol-4-yl)methylamino)pyridazin-3(2H)-one] reads 0.014 nM.

With `COc1ccc([C@H]2C[C@@H]2COc2cc(NCc3cc(C)nn3C)c(=O)n(C)n2)nc1` [Example 132, 4-((1,3-dimethyl-1H-pyrazol-5-yl)methyl-amino)-6-(((1S,2S)-2-(5-methoxypyridin-2-yl)-cyclopropyl)methoxy)-2-methylpyridazin-3(2H)one], the Ki worked out at 0.002 nM. The result for `COc1ccc(CNc2cc(OC[C@H]3C[C@@H]3c3ccc(OC)cn3)nn(C)c2=O)cc1` [Example 133, 4-(4-methoxybenzyl-amino)-6-(((1S,2S)-2-(5-methoxypyridin-2-yl)-cyclopropyl)methoxy)-2-methylpyridazin-3(2H)one] reads 0.021 nM. Regarding `COc1ccc([C@H]2C[C@@H]2COc2cc(NCc3ccccn3)c(=O)n(C)n2)nc1` [Example 134, 6-(((1S,2S)-2-(5-methoxy-pyridin-2-yl)-cyclopropyl-)methoxy)-2-methyl-4-(pyridin-2-yl-methyl-amino)pyridazin-3(2H)one], the Ki worked out at 0.706 nM. In the case of `COc1ccc([C@H]2C[C@@H]2COc2cc(NCc3cccnc3)c(=O)n(C)n2)nc1` [Example 135, 6-(((1S,2S)-2-(5-methoxy-pyridin-2-yl)cyclopropyl-)methoxy)-2-methyl-4-(pyridin-3-ylmethylamino-)pyridazin-3(2H)-one], the Ki was found to be 0.261 nM. The result for `COc1ccc([C@H]2C[C@@H]2COc2cc(NCCc3nccs3)c(=O)n(C)n2)nc1` [Example 136, 6-(((1S,2S)-2-(5-methoxy-pyridin-2-yl)cyclopropyl-)methoxy)-2-methyl-4-(2-(thiazol-2-yl)ethylamino-)pyridazin-3(2H)-one] reads 10.3 nM; that for `CCc1cc(CNc2cc(OC[C@H]3C[C@@H]3c3ccc(OC)cn3)nn(C)c2=O)n(C)n1` [Example 137, 4-((3-ethyl-1-methyl-1H-pyrazol-5-yl)methylamino)-6-(((1S,2S)-2-(5-methoxypyridin-2-yl)cyclopropyl)methoxy)-2-methylpyridazin-3(2H)-one], 0.058 nM; that for `CCc1cc(CNc2cc(OC[C@H]3C[C@@H]3c3ccc(C)cn3)nn(C)c2=O)n(C)n1` [Example 138, 4-((3-ethyl-1-methyl-1H-pyrazol-5-yl)methylamino)-2-methyl-6-(((1S,2S)-2-(5-methylpyridin-2-yl)cyclopropyl)methoxy) pyridazin-3(2H)-one], 0.027 nM. The figure for `CCc1cc(CNc2cc(OC[C@H]3C[C@@H]3c3ccn(C)n3)nn(C)c2=O)n(C)n1` [Example 139, 4-((3-ethyl-1-methyl-1H-pyrazol-5-yl)methylamino)-2-methyl-6-(((1S,2S)-2-(1-methyl-1H-pyrazol-3-yl)cyclopropyl)methoxy) pyridazin-3(2H)-one] is 0.295 nM; for `COc1ccc([C@H]2C[C@@H]2COc2nn(C)c(=O)c(NCc3nnc(C)s3)c2Br)nc1` [Example 140, 5-bromo-6-(((1S,2S)-2-(5-methoxypyridin-2-yl)cyclopropyl)methoxy)-2-methyl-4-((5-methyl-1,3,4-thiadiazol-2-yl)methyl-amino)pyridazin-3(2H)-one] it is 0.004 nM.

As to `COc1ccc([C@H]2C[C@@H]2COc2nn(C)c(=O)c(NCc3nnc(C)s3)c2Cl)nc1` [Example 141, 5-chloro-6-(((1S,2S)-2-(5-methoxypyridin-2-yl)cyclopropyl)methoxy)-2-methyl-4-((5-methyl-1,3,4-thiadiazol-2-yl)methylamino)pyridazin-3(2H)-one], the inhibitory constant (Ki) came out at 0.004 nM.

In the case of `COc1ccc(Cn2nc(OC[C@H]3C[C@@H]3c3ccc(OC)cn3)cc(NCc3nnc(C)s3)c2=O)cc1` [Example 142, 2-(4-methoxybenzyl)-6-(((1S,2S)-2-(5-methoxy-pyridin-2-yl)cyclopropyl-)methoxy)-4-((5-methyl-1,3,4-thiadiazol-2-yl)methyl-amino)pyridazin-3(2H)-one], the Ki amounted to 75 nM. Regarding `CCn1nc(OC[C@H]2C[C@@H]2c2ccc(OC)cn2)cc(NCc2nnc(C)s2)c1=O` [Example 144, 2-ethyl-6-(((1S,2S)-2-(5-methoxypyridin-2-yl)cyclopropyl)methoxy)-4-((5-methyl-1,3,4-thiadiazol-2-yl)methylamino)pyridazin-3(2H)-one], the inhibition constant (Ki) stood at 0.032 nM. On to `C#CCN(Cc1ccc(OC)cc1)c1cc(OC[C@H]2C[C@@H]2c2ccc(OC)cn2)nn(C)c1=O` [Example 145, 4-((4-methoxybenzyl)(prop-2-ynyl)amino)-6-(((1S,2S)-2-(5-methoxypyridin-2-yl)cyclopropyl)methoxy)-2-methylpyridazin-3(2H)-one], for which the Ki was found to be 7.9 nM. The result for `COc1ccc([C@H]2C[C@@H]2COc2cc(NCc3c[nH]nn3)c(=O)n(C)n2)nc1` [Example 146, 4-((1H-1,2,3-triazol-4-yl)methylamino)-6-(((1S,2S)-2-(5-methoxypyridin-2-yl)cyclopropyl)methoxy)-2-methylpyridazin-3(2H)-one] reads 0.048 nM; that for `COc1ccc([C@H]2C[C@@H]2COc2cc(NCc3cn(C)nn3)c(=O)n(C)n2)nc1` [Example 147, 6-(((1S,2S)-2-(5-methoxy-pyridin-2-yl)-cyclopropyl-)methoxy)-2-methyl-4-((1-methyl-1H-1,2,3-triazol-4-yl)methylamino)pyridazin-3(2H)-one], 0.066 nM. As to `COc1ccc([C@H]2C[C@@H]2COc2cc(NCc3cnn(C)n3)c(=O)n(C)n2)nc1` [Example 148, 6-(((1S,2S)-2-(5-methoxypyridin-2-yl)cyclopropyl)methoxy)-2-methyl-4-((2-methyl-2H-1,2,3-triazol-4-yl)methylamino)pyridazin-3(2H)-one], the Ki was determined as 0.648 nM.

What is called Ki is the equilibrium dissociation constant of an inhibitor or competing ligand from its target.
